Results on one compound are retold here after patent US20210393655A1, “Vesicular Formulations for Use in the Treatment of Pain or Reduced Mobility of a Joint” (Sequessome Technology Holdings Limited, priority 2012, published 2021).

Common to all, as to format: in vivo, human
Experiment [1] concerns patients with osteoarthritis of the knee. Put plainly: Clinical trials in osteoarthritis of the knee: WOMAC stiffness subscale. To be noted: study CL-033-III-03; end of 3 month treatment. The method, then:
(§1) Six clinical trials were conducted with Formulation X on patients with osteoarthritis of the knee. One efficacy measure was the change from baseline to the end of the study in patients' perception of joint stiffness and physical function. In studies CL-033-III-03 and CL-033-III-06, joint stiffness was assessed using two single items describing the severity of stiffness, both of which were measured using an 11-point numerical rating (NRS) on the stiffness subscale of the Western Ontario and McMaster Universities (WOMAC) Osteoarthritis Index (version 3.1) instrument. A measure of physical function was performed in all six studies using the WOMAC Osteoarthritis Index (version 3.1), which consisted of 17 single items describing the difficulty in performing daily activities. Each item was rated on a VAS or an 11-point numerical scale.

For experiment [2] the test system is unchanged. Put plainly: Clinical trials in osteoarthritis of the knee: WOMAC physical function subscale. Here is the method: as §1, with “One” for “Six clinical trials were conducted with Formulation X on patients with osteoarthritis of the knee. One”
Experiment [3] shares this test system. Description: Clinical trial CL-033-III-03: WOMAC pain subscale. Here is the method: as §1
Pain, joint mobility and physical function outcomes were compared in study CL-033-III-03.

[4] abbreviates: oral celecoxib 100 mg b.i.d. (n = 233), 3 months, CL-033-III-03.
[5] abbreviates: study CL-033-III-03, end of 3 month treatment.

SMILES strings stand for the structures.

In the case of `Cc1ccc(-c2cc(C(F)(F)F)nn2-c2ccc(S(N)(=O)=O)cc2)cc1` [celecoxib], the “Reduction in stiffness (WOMAC stiffness)” value in experiment [1] stood at 37.9%. The “Effect size versus oral placebo (Mann-Whitney estimator, MW), WOMAC function subscale score” value in experiment [2] (setting [4]) was “MW = 0.5949”. Also, the “Improvement in physical function (WOMAC function)” value in experiment [2] (setting [5]) was 38.2%. For the same compound, the “Effect size versus oral placebo (Mann-Whitney estimator, MW), WOMAC pain subscale score” value in experiment [3] (setting [4]) is listed as “MW = 0.5873”. For the same compound, the “Reduction in joint pain (WOMAC pain)” value in experiment [3] (setting [5]) was determined as 40.4%.
